# Read-outs that look alike come from different tables or passages of the source.
# Tests used:
# BVDV (strain NADL) = assay: Cell culture assay for inhibition of BVDV replication (cytopathic effect, crystal violet); format: cell-based, bovine viral diarrhea virus
# Text: The replication of many viruses may be quantitatively assessed in the laboratory in various cell or tissue culture systems. Such in vitro culture methodologies are available and useable by those trained in the art for the propagation and quantitative measurement of the replication of several pestiviruses and flaviviruses. The following procedure was used for the in vitro quantitative measure of BVDV replication.
# Using the procedure described in this example, compounds of the invention were evaluated for their ability to inhibit the replication of the virus in cell culture. By adding compounds at various concentrations to the culture medium, a dose response effect of the compound on virus replication can be determined. A useful quantitative measure of the inhibition of BVDV replication in this assay is the concentration of the compound at which virus replication in cell culture is inhibited by 50% in comparison to that observed in the absence of the compound (50% Inhibitory Concentration, IC50).
# Anti-pestivirus compounds of the invention were screened for antiviral activity against BVDV on Madin Darby bovine kidney (MDBK) cells in a cell culture assay. Standard 96-well culture plates were seeded with 1 to 2×10^4 MDBK cells in 200 uL of Dulbeccos-modified Eagle's medium (DMEM) supplemented with 5% horse serum so as to obtain a monolayer of cells at 60% confluence. Six hours later, the medium was removed and the cell monolayers in each well were infected with 150 uL solution of BVDV (strain NADL) (M. S. Collett et al., Virology 165:191-199 (1988)) in DMEM supplemented with 2% horse serum previously titrated to yield 85-100% destruction (cytopathic effect) of the cell monolayer 36-40 hours after infection.
# To determine the IC50 values of compounds tested in this experiment, ten serial 2-fold dilutions of test compounds were prepared in DMSO solvent at a compound concentration 200 times that desired for the highest final test concentration. The test compound-DMSO solutions were diluted 50-fold into DMEM containing 2% horse serum. Fifty uL of this dilution was added to the 150 uL volume present in the wells of the virus-infected plate, yielding a final DMSO concentration in each well of 0.5%. Virus control (VC; no test compound) and cell culture control (CC; no virus and no test compound) wells were included on each 96-well plate. Assay points were conducted in replicate, usually in quadruplicate. Plates were then incubated at 37° C. in a humidified atmosphere containing 2.5% carbon dioxide for 36-40 hours. At the end of the incubation period, 100 uL of a 5% solution of glutaraldehyde in water was added to each well and the wells were incubated at room temperature for 1 hour. The fixative was removed, and the cells were stained with a 0.1% solution of crystal violet in water for 15-30 minutes. After rinsing and drying the plates, the optical density of the wells was measured at 570 nm (OD570).
# To determine IC50 values for the test compounds, the mean value of the OD570 readings of the virus control wells (VC) on a plate was subtracted from the OD570 readings of all wells on that plate. The IC50 values were then calculated according to the following formula: [formula]
# where Y represents the mean OD570 reading of the cell control wells (CC) divided by 2; B represents the mean OD570 reading of wells of the compound dilution nearest to and below Y; A represents the mean OD570 reading of wells of the compound dilution nearest to and above Y; L represents the compound concentration at B; and H represents the compound concentration at A.
# [1] = system: Respiratory syncytial virus; assay: microbe, parasite or virus in culture; format: cell-based; details: read-out: IC50 Respiratory syncytial virus
# Influenza A virus = assay: microbe, parasite or virus in culture; format: cell-based; details: read-out: IC50 Influenza A virus
# Coxsackie B3 virus = assay: microbe, parasite or virus in culture; format: cell-based
# [2] = system: Herpes simplex virus type 2; assay: microbe, parasite or virus in culture; format: cell-based
# normal cells = details: highest concentration giving optical density ≧75% of control, MTT, 68 hours
# Experimental: This assay measures cell viability, and therefore cytotoxicity, by quantitatively detecting the in situ reduction of 3-(4,5-dimethylthiazol-2-yl)-2,5-diphenyltetrazolium bromide (MTT) by viable cells. Cells are seeded in 96-well plates in DMEM containing 2% horse serum at a density of 4×10^3 cells per well. After incubation for 4 hours at 37° C. and 5% CO2, 2-fold serial dilutions of compound in 1% DMSO (or solvent alone) are added to quadruplicate wells and the plates are incubated for an additional 68 hours at 37° C. and 5% CO2, which is equivalent to 3 to 4 cell doublings. The culture medium is removed, and the cells are treated with 1 mg/ml of MTT in phosphate-buffered saline, pH 7.2 for 4 hours at 37° C. and 5% CO2. After removal of the unreduced MTT, the reduced blue formazan crystals produced by the viable cells are solubilized by the addition of 0.04N HCl in isopropanol. The absorbance at 570 nm (A570) of each well is read using a suitable microplate reader. Cell viability is expressed as the percentage of optical density for compound-treated cells relative to the optical density of solvent alone-treated control wells. The highest compound concentration resulting in an optical density of ≧75% of the control is represented as the cellular cytotoxicity value (CC75).
# [3] = mouse, in vivo, po
# [4] = Animal safety study: maximum tolerated dose after single oral dose; details: female, Swiss Webster, mouse, in vivo, po
# Experimental: (§1) Doses above this level are overtly toxic or fatal to the animal.
# (§2) To assess the safety of compounds of the invention, the methyl cellulose formulations of compounds of the invention were administered to laboratory mice. A single dose of each compound in a 0.5 mL volume was administered by oral gavage to groups of test animals, each consisting of five female Swiss Webster mice 8 to 9 weeks of age and weighing 25 to 30 g. The MTD was determined by administering increasing doses of compound and assessing animal survival over a 7 day period.
# [5] = system: female Swiss Webster mice; assay: as above; details: mice; for MTD: single oral dose, survival over 7 days
# Experimental: as §1, §2
# BVDV-infected MDBK cells = format: cell-based, bovine viral diarrhea virus; details: read-out: IC50 evaluated with the spiked mouse reference serum
# [6] = system: female Swiss Webster mice; details: mouse, in vivo, po
# Experimental: as §1, §2
# [7] = Bovine viral diarrhea virus isolates and strains, BVDV strain NADL on MDBK cells, 36-40 hours, read-out: IC50
# [8] = Bovine viral diarrhea virus isolates and strains, BVDV, read-out: IC50 determined in cell culture
# [9] = Bovine viral diarrhea virus isolates and strains, Table 3 specificity panel, BVDV, read-out: IC50 BVDV
# [10] = Bovine viral diarrhea virus isolates and strains, antiviral IC50 against BVDV, Table 4, read-out: IC50
# [11] = human respiratory syncytial virus
# [12] = Enterovirus B, B3, read-out: IC50 Coxsackie B3 virus
# [13] = Human alphaherpesvirus 2, read-out: IC50 Herpes simplex virus type 2
# [14] = single oral gavage dose 21 mg/kg
# [15] = single oral gavage dose 71 mg/kg
# [16] = single oral gavage dose 710 mg/kg
# [17] = single oral gavage dose 214 mg/kg
compound,measurement,setting,value
c1ccc2c(c1)[nH]c1nc(SCCN3CCCCCC3)nnc12 [Example 9],IC50,BVDV (strain NADL); [7],30 nM
same,IC50,BVDV (strain NADL); [8],30 nM
same,IC50,BVDV (strain NADL); [9],30 nM
same,IC50,BVDV (strain NADL); [10],30 nM
same,IC50,[1]; [11],> 50000 nM
same,IC50,Influenza A virus; Influenza A virus,> 50000 nM
same,IC50,Coxsackie B3 virus; [12],> 50000 nM
same,IC50,[2]; [13],> 50000 nM
same,CC75,normal cells,25000 nM
same,Concentration Of Drug Measured In Serum Post Drug Administration 30 Min.,"[3]; Swiss Webster, 21 mg/kg",700 nM
same,Concentration Of Drug Measured In Serum Post Drug Administration 90 Min.,"[3]; Swiss Webster, 21 mg/kg",<200 nM
same,Concentration Of Drug Measured In Serum Post Drug Administration 30 Min.,"[3]; Swiss Webster, 214 mg/kg",19600 nM
same,Concentration Of Drug Measured In Serum Post Drug Administration 90 Min.,"[3]; Swiss Webster, 214 mg/kg",8500 nM
same,MTD at 7 day,[4],214 mg/kg
same,#Survivors (alive at Day 7),[5]; [14],5/5
same,#Survivors (alive at Day 7),[5]; [15],5/5
same,#Survivors (alive at Day 7),[5]; [16],0/5
c1ccc2c(c1)[nH]c1nc(SCCN3CCCC3)nnc12 [Example 6],IC50,BVDV (strain NADL); [7],500 nM
CCCN(CCC)CCSc1nnc2c(n1)[nH]c1ccccc12 [Example 19],IC50,BVDV (strain NADL); [7],2 nM
COc1ccc2[nH]c3nc(SCCN4CCOCC4)nnc3c2c1 [Example 25],IC50,BVDV (strain NADL); [7],2000 nM
CCCCN(CCCC)CCSc1nnc2c(n1)[nH]c1ccccc12 [Example 12],IC50,BVDV (strain NADL); [7],10 nM
CC(C)N(CCSc1nnc2c(n1)[nH]c1ccccc12)C(C)C [Example 3],IC50,BVDV (strain NADL); [7],3100 nM
c1ccc2c(c1)OCC(CSc1nnc3c(n1)[nH]c1ccccc13)O2 (stereo not shown) [Example 16],IC50,BVDV (strain NADL); [7],2500 nM
CCC1CCN(CCSc2nnc3c(n2)[nH]c2ccccc23)CC1 [Example 15],IC50,BVDV (strain NADL); [7],> 3000 nM
Fc1ccc2[nH]c3nc(SCCN4CCCCCC4)nnc3c2c1 [Example 23],IC50,BVDV (strain NADL); [7],14 nM
Brc1ccc2[nH]c3nc(SCCN4CCCCCC4)nnc3c2c1 [Example 22],IC50,BVDV (strain NADL); [7],42 nM
c1ccc2c(c1)[nH]c1nc(SCCCN3CCCCC3)nnc12 [Example 8],IC50,BVDV (strain NADL); [7],4400 nM
CCCN(CCC)CCSc1nnc2c(n1)[nH]c1ccc(N)cc12 [Example 26],IC50,BVDV (strain NADL); [7],10 nM
c1ccc2c(c1)[nH]c1nc(SCCN3CCOCC3)nnc12 [Example 11],IC50,BVDV (strain NADL); [7],1200 nM
CCN(CC)CC(C)Sc1nnc2c(n1)[nH]c1ccccc12 (stereo not shown) [Example 2],IC50,BVDV (strain NADL); [7],300 nM
N#CC1CCN(CCSc2nnc3c(n2)[nH]c2ccccc23)CC1 [Example 14],IC50,BVDV (strain NADL); [7],1800 nM
c1ccc2c(c1)[nH]c1nc(SCCCCOC3CCCCO3)nnc12 (stereo not shown) [Example 18],IC50,BVDV (strain NADL); [7],> 3000 nM
Brc1ccc2[nH]c3nc(SCCN4CCCCC4)nnc3c2c1 [Example 21],IC50,BVDV (strain NADL); [7],36 nM
Cc1ccc2[nH]c3nc(SCCN4CCCCC4)nnc3c2c1 [Example 24],IC50,BVDV (strain NADL); [7],13 nM
COc1cc2oc(=O)cc(CSc3nnc4c(n3)[nH]c3ccccc34)c2cc1OC [Example 13],IC50,BVDV (strain NADL); [7],1700 nM
Fc1ccc2[nH]c3nc(SCCN4CCCCC4)nnc3c2c1 [Example 27],IC50,BVDV (strain NADL); [7],21 nM
Clc1cc(CSc2nnc3c(n2)[nH]c2ccccc23)cc(Cl)n1 [Example 17],IC50,BVDV (strain NADL); [7],1400 nM
CN(C)CCSc1nnc2c(n1)[nH]c1ccccc12 [Example 5],IC50,BVDV (strain NADL); [7],5500 nM
"CCCN(CCC)CCSc1nnc2c(n1)[nH]c1ccccc12 [Example 1, 3-[((2-dipropylamino)ethyl)thio]-5H-1,2,4-triazino[5,6-b]indole]",IC50,BVDV (strain NADL); read-out: IC50,6 nM
same,IC50,BVDV (strain NADL); read-out: IC50 BVDV,6 nM
same,IC50,BVDV (strain NADL); read-out: IC50 determined in cell culture,6 nM
same,IC50,[1],> 50000 nM
same,IC50,Influenza A virus,> 50000 nM
same,IC50,Coxsackie B3 virus; read-out: IC50 Coxsackie B3 virus,> 50000 nM
same,IC50,[2]; read-out: IC50 Herpes simplex virus type 2,> 50000 nM
same,IC50,BVDV-infected MDBK cells,3.5 nM
same,CC75,normal cells,2000 nM
same,MTD,[6],greater than or equal to the highest dose tested
same,Concentration Of Drug Measured In Serum Post Drug Administration 30 Min.,[3]; 21 mg/kg,100 nM
same,Concentration Of Drug Measured In Serum Post Drug Administration 90 Min.,[3]; 21 mg/kg,70 nM
same,Concentration Of Drug Measured In Serum Post Drug Administration 30 Min.,[3]; 214 mg/kg,1100 nM
same,Concentration Of Drug Measured In Serum Post Drug Administration 90 Min.,[3]; 214 mg/kg,600 nM
same,MTD,[5],≧710 mg/kg
same,#Survivors (alive at Day 7),[5]; [14],5/5
same,#Survivors (alive at Day 7),[5]; [15],5/5
same,#Survivors (alive at Day 7),[5]; [17],5/5
same,#Survivors (alive at Day 7),[5]; [16],5/5
c1ccc2c(c1)[nH]c1nc(SCCN3CCCCC3)nnc12 [Example 7],IC50,BVDV (strain NADL); [7],60 nM
same,IC50,BVDV (strain NADL); [8],60 nM
same,IC50,BVDV (strain NADL); [9],60 nM
same,IC50,BVDV (strain NADL); [10],60 nM
same,IC50,[1]; [11],> 50000 nM
same,IC50,Influenza A virus; Influenza A virus,> 50000 nM
same,IC50,Coxsackie B3 virus; [12],> 50000 nM
same,IC50,[2]; [13],> 50000 nM
same,CC75,normal cells,12500 nM
same,Concentration Of Drug Measured In Serum Post Drug Administration 30 Min.,"[3]; Swiss Webster, 21 mg/kg",<1500 nM
same,Concentration Of Drug Measured In Serum Post Drug Administration 90 Min.,"[3]; Swiss Webster, 21 mg/kg",<1500 nM
same,Concentration Of Drug Measured In Serum Post Drug Administration 30 Min.,"[3]; Swiss Webster, 214 mg/kg",46000 nM
same,Concentration Of Drug Measured In Serum Post Drug Administration 90 Min.,"[3]; Swiss Webster, 214 mg/kg",36200 nM
same,MTD at 7 day,[4],≥ 710 mg/kg
same,MTD,[5],greater than or equal to the highest dose tested
same,#Survivors (alive at Day 7),[5]; [14],5/5
same,#Survivors (alive at Day 7),[5]; [15],5/5
same,#Survivors (alive at Day 7),[5]; [17],5/5
same,#Survivors (alive at Day 7),[5]; [16],5/5
Cc1ccc2[nH]c3nc(SCCN4CCCCCC4)nnc3c2c1 [Example 20],IC50,BVDV (strain NADL); [7],7 nM
CC(CN(C)C)Sc1nnc2c(n1)[nH]c1ccccc12 (stereo not shown) [Example 4],IC50,BVDV (strain NADL); [7],3700 nM
c1ccc2c(c1)[nH]c1nc(SCc3ccncc3)nnc12 [Example 10],IC50,BVDV (strain NADL); [7],4000 nM
